Assay results: ChEMBL document CHEMBL1201862, “PubChem BioAssay data set” (2004)
Active and inactive are the calls of the source.

How the values were obtained:
[1] = target: fMet-Leu-Phe receptor (Homo sapiens, UniProt P21462); assay: formyl peptide receptor binders – dose response (AID 519); type: functional
[2] = target: T1, Cytochrome P450 1A2 (Homo sapiens, UniProt P05177);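 further: PubChem cytochrome P450 panel assay, CYP1A2 panel member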
T1 sequence (P05177 whole entry): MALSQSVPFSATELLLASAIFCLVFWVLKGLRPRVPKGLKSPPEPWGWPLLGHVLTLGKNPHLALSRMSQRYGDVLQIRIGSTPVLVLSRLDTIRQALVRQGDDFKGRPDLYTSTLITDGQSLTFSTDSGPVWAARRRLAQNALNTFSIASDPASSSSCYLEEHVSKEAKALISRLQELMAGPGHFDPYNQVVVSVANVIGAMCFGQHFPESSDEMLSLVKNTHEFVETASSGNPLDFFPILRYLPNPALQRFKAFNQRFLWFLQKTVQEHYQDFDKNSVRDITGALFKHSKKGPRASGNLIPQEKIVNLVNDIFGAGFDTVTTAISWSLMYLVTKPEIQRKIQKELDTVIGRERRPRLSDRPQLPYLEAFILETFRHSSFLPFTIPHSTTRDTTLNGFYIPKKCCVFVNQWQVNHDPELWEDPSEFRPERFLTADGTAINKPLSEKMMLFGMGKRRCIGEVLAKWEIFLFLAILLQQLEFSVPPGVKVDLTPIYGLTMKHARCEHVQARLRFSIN

[3] = loss of viability in HepG2 cells – cell-based, CellTiter-Glo, cherry-picked, cytotoxicity control for Shn3 inhibitor project, dose response (AID 624134); type: functional
[4] = target: Protein Wnt-3a (Mus musculus, UniProt P27467); assay: antagonism of Wnt3a pathway luciferase reporter – Wnt-LIGHT cells, luminescence, selectivity assay for Gli-SUFU antagonist project, dose response (AID 651570); type: functional; conditions: read-out: IC50_Mean;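 further: Wnt-LIGHT reporter cells stimulated with conditioned medium from Wnt3a-producing cells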
[5] = target: Matrix metalloproteinase-14 (Homo sapiens, UniProt P50281); assay: Dose Response confirmation of uHTS hits for a small molecule inhibitors of MT1-MMP activation in a fluorescence assay set 1.; type: functional
[6] = reduction of Shn3 3'UTR-driven luciferase in osteoblasts – cell-based, Clone20 osteoblasts, firefly luciferase, cherry-picked, dose response (AID 624132); type: functional;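 further: firefly luciferase luminescence from reporter carrying the Shn3 3'UTR in osteoblasts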
[7] = non-specific 3'UTR reporter inhibition in Clone20-Shn3RL – cell-based, Renilla luciferase, cherry-picked, counter-screen for Shn3 inhibitor project, dose response (AID 624133); type: functional
[8] = target: Endoplasmic reticulum aminopeptidase 1 (Homo sapiens, UniProt Q9NZ08); assay: inhibition of human ERAP1 enzyme activity – biochemical, cherry-pick, set 2, plate reader, dose response (AID 743314)
[9] = target: Tyrosyl-DNA phosphodiesterase 2 (Homo sapiens, UniProt O95551); assay: potency against TDP2 phosphodiesterase activity – biochemical, epi absorbance, IC50, dose response (AID 743297)
[10] = system: Vero; assay: viability of Vero cells under compound – cytotoxicity control for flavivirus capping enzyme inhibitors (AID 588742); type: functional; conditions: Chlorocebus sabaeus
[11] = target: T2, Histone-lysine N-methyltransferase NSD2 (Homo sapiens, UniProt O96028); type: biochemical
T2 sequence (O96028 whole entry): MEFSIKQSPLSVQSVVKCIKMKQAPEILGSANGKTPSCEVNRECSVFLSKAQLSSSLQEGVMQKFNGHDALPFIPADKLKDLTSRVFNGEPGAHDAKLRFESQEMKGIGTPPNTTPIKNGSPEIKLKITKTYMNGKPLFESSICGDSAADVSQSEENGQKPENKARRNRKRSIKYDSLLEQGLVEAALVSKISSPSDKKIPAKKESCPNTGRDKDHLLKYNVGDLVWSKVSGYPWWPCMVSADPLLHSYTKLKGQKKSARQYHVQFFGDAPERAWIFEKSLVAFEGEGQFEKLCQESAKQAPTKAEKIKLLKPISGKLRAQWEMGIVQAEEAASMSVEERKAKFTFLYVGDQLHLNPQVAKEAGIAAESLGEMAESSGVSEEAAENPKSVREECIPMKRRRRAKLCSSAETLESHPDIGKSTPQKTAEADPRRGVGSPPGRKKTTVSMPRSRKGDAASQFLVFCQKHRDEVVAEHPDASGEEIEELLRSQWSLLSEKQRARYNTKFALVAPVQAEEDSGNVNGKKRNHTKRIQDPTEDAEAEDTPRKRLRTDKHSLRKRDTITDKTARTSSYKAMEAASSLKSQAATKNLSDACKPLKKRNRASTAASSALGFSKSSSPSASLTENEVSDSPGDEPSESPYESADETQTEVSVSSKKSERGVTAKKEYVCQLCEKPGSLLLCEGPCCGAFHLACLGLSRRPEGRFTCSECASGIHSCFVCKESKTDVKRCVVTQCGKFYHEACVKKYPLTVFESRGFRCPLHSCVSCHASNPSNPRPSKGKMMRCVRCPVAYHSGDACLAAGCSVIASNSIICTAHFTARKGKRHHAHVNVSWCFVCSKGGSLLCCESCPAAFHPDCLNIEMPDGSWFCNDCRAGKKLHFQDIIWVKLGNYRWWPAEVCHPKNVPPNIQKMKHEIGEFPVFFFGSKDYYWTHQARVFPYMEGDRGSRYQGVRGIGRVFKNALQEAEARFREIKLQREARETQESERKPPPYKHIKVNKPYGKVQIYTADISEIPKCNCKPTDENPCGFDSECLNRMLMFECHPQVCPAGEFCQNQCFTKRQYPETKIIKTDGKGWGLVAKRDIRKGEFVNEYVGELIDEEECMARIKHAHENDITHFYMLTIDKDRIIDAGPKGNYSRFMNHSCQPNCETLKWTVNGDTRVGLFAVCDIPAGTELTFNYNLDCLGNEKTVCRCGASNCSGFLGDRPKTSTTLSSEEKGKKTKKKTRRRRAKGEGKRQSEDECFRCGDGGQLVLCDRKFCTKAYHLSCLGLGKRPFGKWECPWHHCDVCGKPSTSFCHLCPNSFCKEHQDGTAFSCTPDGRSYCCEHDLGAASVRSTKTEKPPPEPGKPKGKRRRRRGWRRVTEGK

[12] = target: Mu-type opioid receptor (Homo sapiens, UniProt P35372); type: functional, cell-based;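 further: U2OS cells with beta-arrestin recruitment to OPRM1 by beta-gal complementation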
[13] = target: 5-hydroxytryptamine receptor 2A (Mus musculus, UniProt P35363); type: functional, cell-based;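 further: CHO-K1 cells with tagged receptor and beta-arrestin; agonist potency measured as compound-induced activation of the receptor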
[14] = target: T3, Nuclear receptor subfamily 0 group B member 1 (Homo sapiens, UniProt P51843); type: functional, cell-based;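 further: HEK293T cells transfected with SF-1 and DAX-1 plus StAR promoter luciferase reporter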
T3 sequence (P51843 whole entry): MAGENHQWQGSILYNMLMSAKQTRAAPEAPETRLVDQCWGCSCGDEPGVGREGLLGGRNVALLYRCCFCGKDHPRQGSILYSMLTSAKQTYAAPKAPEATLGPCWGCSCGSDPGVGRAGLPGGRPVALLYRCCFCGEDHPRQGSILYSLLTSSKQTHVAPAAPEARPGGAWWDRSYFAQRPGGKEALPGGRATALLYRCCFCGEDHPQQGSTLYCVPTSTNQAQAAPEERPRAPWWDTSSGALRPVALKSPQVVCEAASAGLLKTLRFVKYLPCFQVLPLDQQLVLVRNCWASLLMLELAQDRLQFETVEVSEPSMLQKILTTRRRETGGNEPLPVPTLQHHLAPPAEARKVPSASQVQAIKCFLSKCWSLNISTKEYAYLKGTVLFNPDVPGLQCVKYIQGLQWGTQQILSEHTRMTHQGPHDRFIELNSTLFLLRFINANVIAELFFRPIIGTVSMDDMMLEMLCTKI

[15] = cells; type: functional, cell-based
[16] = target: Disintegrin and metalloproteinase domain-containing protein 17 (Homo sapiens, UniProt P78536); assay: exosite inhibitors of ADAM17, dose response, biochemical (AID 743260)
[17] = system: Streptococcus; assay: GAS UMAA2166 growth inhibition – luminescence, BacTiterGlo, counter-screen for streptokinase expression inhibitor project, dose response (AID 1915); type: functional, organism-based;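 further: potency for reduction of bacterial viability or growth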
[18] = inhibition of ADAM10 peptide cleavage – biochemical, FRET peptide substrate, recombinant human ADAM10, selectivity assay for ADAM17 exosite inhibitor project, dose response (AID 743259);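 further: ADAM10 enzyme cleaving a FRET peptide substrate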
[19] = target: T4, Streptokinase A (Streptococcus pyogenes serotype M1, UniProt P10520); assay: viability-normalized secreted streptokinase activity reduction – plasminogen activation absorbance, OD405, dose response (AID 1914); type: functional, Streptococcus pyogenes M1 GAS;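 further: secreted streptokinase activity via plasminogen activation per viability signal from cell pellet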
T4 sequence (P10520 whole entry): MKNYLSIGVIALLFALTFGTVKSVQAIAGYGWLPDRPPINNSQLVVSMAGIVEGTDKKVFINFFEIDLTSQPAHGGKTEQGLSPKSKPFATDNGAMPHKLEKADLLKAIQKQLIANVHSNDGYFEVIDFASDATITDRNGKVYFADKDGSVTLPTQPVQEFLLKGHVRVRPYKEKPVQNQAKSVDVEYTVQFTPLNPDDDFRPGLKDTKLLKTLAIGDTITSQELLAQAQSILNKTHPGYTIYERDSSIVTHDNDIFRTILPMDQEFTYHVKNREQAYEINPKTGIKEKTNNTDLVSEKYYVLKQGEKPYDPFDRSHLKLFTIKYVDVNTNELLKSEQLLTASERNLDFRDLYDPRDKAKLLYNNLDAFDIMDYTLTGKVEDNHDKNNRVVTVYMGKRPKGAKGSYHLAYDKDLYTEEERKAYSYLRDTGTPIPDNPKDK

[20] = system: Streptococcus sp. 'group A'; assay: Streptococcus pyogenes SK(-)GAS viability under kanamycin – luminescence, BacTiterGlo, confirmation, counter-screen for streptokinase expression inhibitor project, dose response (AID 1900); type: functional, organism-based
[21] = target: Genome polyprotein (dengue virus type 2, UniProt P29990); assay: flavivirus cap methylation enzyme inhibition – biochemical, confirmation dose response, primary screen (AID 588689); type: functional
[22] = target: Long-chain-fatty-acid--AMP ligase FadD28 (Mycobacterium tuberculosis, UniProt P9WQ59); assay: Fluorescence polarization aasay to screen for inhibitors that compete for the binding of FadD28 to a bisubstrate Measured in Biochemical System Using Plate Reader - 2147-01_Inhibitor_Dose_CherryPick_Activity.; type: functional, Mycobacterium tuberculosis H37Rv
[23] = target: Induced myeloid leukemia cell differentiation protein Mcl-1 (Homo sapiens, UniProt Q07820); type: functional
[24] = CTGF mRNA reduction in DLD1 cells – cell-based, DLD1 colon cancer, RT-qPCR, cherry-pick, dose response (AID 1053122); type: functional; conditions: Cancer cell lines
[25] = Mycobacterium tuberculosis BioA enzyme inhibitor Measured in Biochemical System Using Plate Reader - 2163-02_Inhibitor_Dose_DryPowder_Activity.
[26] = A Cell-Based Confirmatory Screen for Compounds that Inhibit VEEV, TC-83 (8).; type: functional
[27] = human cervical cancer cell viability loss – 24 h, plate reader, dry powder, cytotoxicity control, dose response (AID 686928); type: functional, cell-based; conditions: HeLa
[28] = inhibition of bursicon-driven LGR2 cAMP signaling – cell-based, HEK293, CRE-luciferase reporter, cherry pick, dose response (AID 743342); type: functional
[29] = target: Acyl-protein thioesterase 2 (Homo sapiens, UniProt O95372); assay: Late stage assay provider results from the probe development effort to identify selective inhibitors of LYPLA2: fluorescence-based biochemical dose-response assay.
Acyl-protein thioesterase 2, sequence (O95372 whole entry): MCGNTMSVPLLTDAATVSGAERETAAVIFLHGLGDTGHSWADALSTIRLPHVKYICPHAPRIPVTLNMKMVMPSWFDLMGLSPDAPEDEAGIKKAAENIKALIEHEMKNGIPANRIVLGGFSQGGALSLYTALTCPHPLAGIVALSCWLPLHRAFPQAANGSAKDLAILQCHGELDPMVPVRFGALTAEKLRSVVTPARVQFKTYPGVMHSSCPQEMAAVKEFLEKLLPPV

Long-chain-fatty-acid--AMP ligase FadD28, sequence (P9WQ59 whole entry): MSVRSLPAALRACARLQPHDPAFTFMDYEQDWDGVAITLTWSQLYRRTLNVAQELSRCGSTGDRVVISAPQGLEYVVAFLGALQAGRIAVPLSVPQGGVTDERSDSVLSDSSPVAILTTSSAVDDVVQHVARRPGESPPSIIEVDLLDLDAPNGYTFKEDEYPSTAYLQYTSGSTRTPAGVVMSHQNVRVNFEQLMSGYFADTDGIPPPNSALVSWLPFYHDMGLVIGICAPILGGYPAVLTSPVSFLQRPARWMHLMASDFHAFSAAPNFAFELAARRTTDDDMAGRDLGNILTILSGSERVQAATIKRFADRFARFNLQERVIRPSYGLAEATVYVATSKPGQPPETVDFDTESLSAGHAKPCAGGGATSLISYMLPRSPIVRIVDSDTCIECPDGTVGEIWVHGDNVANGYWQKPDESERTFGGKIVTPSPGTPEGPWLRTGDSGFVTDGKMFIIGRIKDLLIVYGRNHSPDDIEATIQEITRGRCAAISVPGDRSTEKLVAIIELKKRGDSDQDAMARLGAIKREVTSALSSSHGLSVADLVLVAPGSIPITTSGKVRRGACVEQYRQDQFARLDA
5-hydroxytryptamine receptor 2A, sequence (P35363 whole entry): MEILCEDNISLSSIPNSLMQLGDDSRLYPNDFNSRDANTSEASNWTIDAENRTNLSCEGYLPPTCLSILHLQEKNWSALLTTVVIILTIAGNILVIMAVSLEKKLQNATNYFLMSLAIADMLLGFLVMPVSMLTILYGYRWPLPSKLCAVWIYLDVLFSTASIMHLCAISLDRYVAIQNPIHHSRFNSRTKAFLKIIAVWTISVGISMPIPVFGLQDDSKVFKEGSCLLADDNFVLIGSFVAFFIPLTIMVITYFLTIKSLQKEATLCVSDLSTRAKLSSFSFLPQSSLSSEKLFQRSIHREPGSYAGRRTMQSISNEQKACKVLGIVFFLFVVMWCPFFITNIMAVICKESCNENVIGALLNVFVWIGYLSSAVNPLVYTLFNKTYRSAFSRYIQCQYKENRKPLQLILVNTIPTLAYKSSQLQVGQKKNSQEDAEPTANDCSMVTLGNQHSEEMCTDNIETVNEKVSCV
Protein Wnt-3a, sequence (P27467 whole entry): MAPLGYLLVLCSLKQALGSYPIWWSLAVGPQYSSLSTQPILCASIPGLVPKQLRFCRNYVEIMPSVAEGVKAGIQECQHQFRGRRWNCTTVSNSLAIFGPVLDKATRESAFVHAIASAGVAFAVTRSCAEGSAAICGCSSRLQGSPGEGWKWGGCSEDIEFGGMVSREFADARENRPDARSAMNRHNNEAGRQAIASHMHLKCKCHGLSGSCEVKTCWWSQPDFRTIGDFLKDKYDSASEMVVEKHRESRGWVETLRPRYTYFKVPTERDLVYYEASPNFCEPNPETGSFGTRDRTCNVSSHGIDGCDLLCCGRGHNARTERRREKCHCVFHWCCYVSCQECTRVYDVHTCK
Tyrosyl-DNA phosphodiesterase 2, sequence (O95551 whole entry): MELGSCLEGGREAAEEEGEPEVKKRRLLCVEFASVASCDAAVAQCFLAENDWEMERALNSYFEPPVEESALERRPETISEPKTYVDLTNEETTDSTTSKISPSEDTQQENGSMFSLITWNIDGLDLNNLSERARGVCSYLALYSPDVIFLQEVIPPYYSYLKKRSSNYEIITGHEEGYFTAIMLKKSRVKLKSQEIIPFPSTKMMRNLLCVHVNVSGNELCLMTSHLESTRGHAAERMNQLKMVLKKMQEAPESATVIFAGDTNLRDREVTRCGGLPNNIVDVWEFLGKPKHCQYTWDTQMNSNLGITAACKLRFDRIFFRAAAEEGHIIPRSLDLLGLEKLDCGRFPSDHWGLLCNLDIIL
Endoplasmic reticulum aminopeptidase 1, sequence (Q9NZ08 whole entry): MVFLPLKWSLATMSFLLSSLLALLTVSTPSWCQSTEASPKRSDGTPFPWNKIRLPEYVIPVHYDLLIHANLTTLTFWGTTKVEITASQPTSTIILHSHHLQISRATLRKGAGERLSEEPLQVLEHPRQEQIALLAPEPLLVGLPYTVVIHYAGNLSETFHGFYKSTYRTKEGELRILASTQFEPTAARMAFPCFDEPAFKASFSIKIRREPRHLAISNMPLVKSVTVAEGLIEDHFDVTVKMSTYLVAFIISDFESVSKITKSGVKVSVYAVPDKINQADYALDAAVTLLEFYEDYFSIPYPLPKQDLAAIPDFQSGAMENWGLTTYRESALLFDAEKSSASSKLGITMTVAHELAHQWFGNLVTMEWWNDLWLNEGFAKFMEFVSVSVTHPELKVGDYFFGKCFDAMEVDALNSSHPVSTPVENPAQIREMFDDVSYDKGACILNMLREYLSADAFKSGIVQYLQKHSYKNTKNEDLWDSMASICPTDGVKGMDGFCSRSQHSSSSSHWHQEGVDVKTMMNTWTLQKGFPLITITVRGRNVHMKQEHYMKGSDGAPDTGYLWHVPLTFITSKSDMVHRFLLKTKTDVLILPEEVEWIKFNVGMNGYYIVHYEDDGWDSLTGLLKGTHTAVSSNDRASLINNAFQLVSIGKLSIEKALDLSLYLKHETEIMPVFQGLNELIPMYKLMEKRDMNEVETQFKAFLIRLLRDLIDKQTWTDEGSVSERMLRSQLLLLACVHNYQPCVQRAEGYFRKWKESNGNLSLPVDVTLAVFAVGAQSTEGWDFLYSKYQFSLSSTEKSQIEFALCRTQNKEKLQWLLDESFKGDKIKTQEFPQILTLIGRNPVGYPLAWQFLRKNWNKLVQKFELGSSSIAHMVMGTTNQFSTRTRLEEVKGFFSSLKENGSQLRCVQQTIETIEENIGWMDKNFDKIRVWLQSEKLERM
Mu-type opioid receptor, sequence (P35372 whole entry): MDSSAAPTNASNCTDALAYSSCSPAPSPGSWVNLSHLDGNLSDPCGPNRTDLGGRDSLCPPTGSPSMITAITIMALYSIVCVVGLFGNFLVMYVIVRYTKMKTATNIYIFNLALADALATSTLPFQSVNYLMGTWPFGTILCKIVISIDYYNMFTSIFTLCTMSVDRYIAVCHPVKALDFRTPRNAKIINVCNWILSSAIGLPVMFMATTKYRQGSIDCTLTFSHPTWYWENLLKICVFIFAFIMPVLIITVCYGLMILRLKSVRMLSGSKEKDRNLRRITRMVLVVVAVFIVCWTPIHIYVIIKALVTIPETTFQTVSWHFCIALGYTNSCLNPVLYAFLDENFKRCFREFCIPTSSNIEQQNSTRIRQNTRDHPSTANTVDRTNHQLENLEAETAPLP
Induced myeloid leukemia cell differentiation protein Mcl-1, sequence (Q07820 whole entry): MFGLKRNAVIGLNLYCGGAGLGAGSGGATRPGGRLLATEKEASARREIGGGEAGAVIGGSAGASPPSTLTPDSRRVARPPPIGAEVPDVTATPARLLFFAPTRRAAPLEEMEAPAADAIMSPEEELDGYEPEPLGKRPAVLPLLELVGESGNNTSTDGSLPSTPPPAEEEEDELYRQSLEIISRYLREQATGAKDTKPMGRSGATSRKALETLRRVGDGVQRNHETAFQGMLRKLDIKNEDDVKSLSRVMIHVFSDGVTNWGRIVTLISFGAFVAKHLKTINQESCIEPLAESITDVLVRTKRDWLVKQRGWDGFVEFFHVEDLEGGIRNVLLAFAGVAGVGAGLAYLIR
Disintegrin and metalloproteinase domain-containing protein 17, sequence (P78536 whole entry, the tested form may be a part): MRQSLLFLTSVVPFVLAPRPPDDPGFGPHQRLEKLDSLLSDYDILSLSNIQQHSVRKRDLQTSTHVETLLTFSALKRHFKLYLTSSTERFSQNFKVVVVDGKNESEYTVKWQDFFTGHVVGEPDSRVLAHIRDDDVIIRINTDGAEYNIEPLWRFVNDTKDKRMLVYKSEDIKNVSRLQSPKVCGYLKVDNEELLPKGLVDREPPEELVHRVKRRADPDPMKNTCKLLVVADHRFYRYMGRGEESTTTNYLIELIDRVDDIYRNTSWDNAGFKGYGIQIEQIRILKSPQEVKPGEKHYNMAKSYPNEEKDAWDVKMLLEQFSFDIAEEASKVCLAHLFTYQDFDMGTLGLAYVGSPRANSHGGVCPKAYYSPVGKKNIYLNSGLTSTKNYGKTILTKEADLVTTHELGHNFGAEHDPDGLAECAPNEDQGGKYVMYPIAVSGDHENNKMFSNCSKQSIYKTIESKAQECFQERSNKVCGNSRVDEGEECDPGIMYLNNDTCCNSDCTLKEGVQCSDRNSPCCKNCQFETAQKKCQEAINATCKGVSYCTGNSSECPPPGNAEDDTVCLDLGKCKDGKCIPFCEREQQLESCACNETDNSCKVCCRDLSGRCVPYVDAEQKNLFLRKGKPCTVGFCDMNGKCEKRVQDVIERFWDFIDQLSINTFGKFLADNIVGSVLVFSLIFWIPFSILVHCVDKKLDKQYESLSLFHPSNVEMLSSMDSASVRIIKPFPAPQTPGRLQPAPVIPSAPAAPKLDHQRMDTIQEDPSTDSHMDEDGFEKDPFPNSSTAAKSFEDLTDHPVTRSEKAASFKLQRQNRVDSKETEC
fMet-Leu-Phe receptor, sequence (P21462 whole entry): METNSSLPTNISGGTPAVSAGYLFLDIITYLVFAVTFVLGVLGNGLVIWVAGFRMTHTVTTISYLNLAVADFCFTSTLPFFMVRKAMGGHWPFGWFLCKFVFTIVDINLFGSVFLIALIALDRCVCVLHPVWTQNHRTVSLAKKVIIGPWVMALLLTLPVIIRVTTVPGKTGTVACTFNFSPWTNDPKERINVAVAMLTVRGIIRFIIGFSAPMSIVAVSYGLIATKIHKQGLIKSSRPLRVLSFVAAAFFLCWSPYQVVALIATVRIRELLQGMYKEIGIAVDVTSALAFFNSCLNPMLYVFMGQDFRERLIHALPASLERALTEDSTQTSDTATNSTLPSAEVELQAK

Cc1nn2c(O)c(C#N)c(-c3ccccc3)nc2c1-c1ccccc1
Ki [1]: > 66.7 µM (inactive)
AC50 [2]: 20 µM (inconclusive)

CNc1ccccc1C(C)(C)c1cc(-c2cccc(Br)c2)no1
AC50 [3]: 44.5 µM (active)
IC50 [4]: 1.8 µM (active)
IC50 [5]: > 80 µM (inactive)
AC50 [6]: 2 µM (active)
AC50 [7]: 9.45 µM (active)

Cc1cc(=O)oc2c(CN3CCN(CCO)CC3)c(O)ccc12
AC50 [8]: 9.03 µM (active)

O=C1C=C(Nc2cccnc2)c2ccccc2C1=O
IC50 [9]: 4.03 µM (active)
CC50 [10]: 12.1 µM (active)
AC50 [11]: 3.7 µM (active)

Cc1cccc(C)c1-n1nnnc1C(C1CC1)N1CCN(C/C=C/c2ccccc2)CC1 (centres undefined)
EC50 [12]: 92.6 µM (inactive)
EC50 [13]: 0.94 µM (active)

CN1OC[C@@H]2CN[C@H](c3ccc(-c4cccc(F)c4)cc3)C[C@@H]21
IC50 [14]: > 67.5 µM (inactive)
IC50 [15]: > 67.5 µM (inactive)

Cc1[nH]n(-c2ncc(-c3ccccc3)s2)c(=O)c1C(c1ccc(Br)cc1)C(C#N)C#N (centres undefined)
IC50 [16]: > 69.5 µM (inactive)
EC50 [17]: 5.75 µM (active)
IC50 [18]: 10.6 µM (inactive)
EC50 [19]: > 150 µM (not active)
EC50 [20]: 3.39 µM (active)
IC50 [21]: 22.3 µM (active)
AC50 [22]: 35.5 µM (active)
IC50 [23]: 4.67 µM (active)

O=C(c1cccc(F)c1)N1CCCCN2[C@@H](CO)[C@H](c3ccc(C#CC4(O)CCCC4)cc3)[C@@H]2C1
AC50 [24]: 1.16 µM (active)

O=C(Nc1cccc(Cl)c1)N1CCN(c2ccccc2)CC1
AC50 [25]: 11 µM (active)

CNCCCN(C)Cc1nc2ccc([N+](=O)[O-])cc2c(=O)n1-c1ccccc1
IC50 [26]: < 0.5 µM (active)

COc1ccc(-n2cnc(=O)c3ccccc32)cc1Cl
AC50 [27]: > 160 µM (inactive)

C[C@H](CO)N1C[C@H](C)[C@H](CN(C)C(=O)Nc2ccc(F)cc2)OCCCC[C@H](C)Oc2ccc(NC(=O)NC3CCCCC3)cc2C1=O
AC50 [28]: 8.05 µM (active)

O=C(CN1CCN(C(=O)c2ccco2)CC1)Nc1cc(C(F)(F)F)ccc1Cl
IC50 [29]: > 10 µM (inactive)
